Results published in patent US4089947A, “Antibiotic compositions containing validamycin compounds” (priority 1976, dated 1978).

Experiments:
Pellicularia sasakii [1] = test: Abnormal branching of hyphal tips of Pellicularia sasakii (agar dilution bioassay); format: cell-based; conditions: for highest dilution factor that causes an abnormal branching at the hyphal tips of Pellicularia sasakii: 1 mg./ml. aqueous solution as stock solution; for dilution unit (maximum dilution which produces abnormal branching): aqueous solution containing 1000 γ/ml., 27° C for 40 hours
Method: Therefore, the bioassay of the antibiotics should be conducted in the following manner.
Pellicularia sasakii is used as the test organism employing plain agar as the assay medium. The test organism is cultivated on a potato (sucrose) agar slant for 2 to 5 days, and the resulting culture is used to inoculate at the center of a 9-cm Petri dish plate of modified Pfeffer's medium, which is then incubated at 27° C for 2 days. By the end of this period, the mycelium will have spread over the entire surface of the plate. The growth on the circumference about 3 to 3.5 cm in radius from the center is cut out with a cork borer and the agar disc thus obtained is used as the inoculum.
A serial dilution series of agar plants containing varying concentrations of the antibiotics is prepared in the same manner as a conventional agar dilution method.
A glass disc of 8 mm in diameter and about 0.2 mm thick, is placed in the center of each of the aforementioned dilution series of agar plates, and the agar disc inoculum is then placed on the glass disc. After incubation at 27° C for 40 hours, the result is evaluated. […] The term dilution unit means the value of maximum dilution which produces such abnormal branching.
Modified Pfeffer's medium, which is employed in this assay, has the following composition.
Before using the medium, the following vitamins are added in the specified amounts. (Weight per ml. of medium)
When a 1 mg./ml. aqueous solution of each of validamycins C, D, E and F and validoxylamines A and B is used as a stock solution, the highest dilution factor that causes an abnormal branching at the hyphal tips of Pellicularia sasakii is as follows.

bacteria and fungi = test: Antimicrobial potency / growth inhibition in vitro; format: cell-based
[2] = pKa' (neutralization, in aqueous solution); format: physicochemical; conditions: water
From the text: 3. The elementary analysis, the molecular formulas as calculated therefrom, pKa' values, neutralization equivalents (molecular weight) and optical rotation values are given in Table 2.

Solubilities = format: physicochemical
[3] = Acute toxicity in mice, intravenous injection; format: in vivo; conditions: mouse, in vivo
Method: (§1) The toxicity of the antibiotics can be confirmed, for instance, by administering each of the validamycins C, D, E and F, and validoxylamines A and B, intravenously to mice and measuring the LD50 value, or by measuring the median lethal dose (48 hours) for Oryzias latipes.

[4] = Acute toxicity for Oryzias latipes (median lethal dose, 48 hours); format: in vivo; conditions: medaka, leaving in water solution, read-out: TLm
Method: as §1

Pellicularia sasakii [5] = test: Rice sheath blight control test, preventive (prophylactic); format: in vivo; conditions: 10 days after application, untreated 34.4cm
Method: (§2) Rice sheath blight control test
(§3) Rice Plants (variety: Kinmaze) are planted in earthen pots 9 cm in diameter, 3 stocks per pot. Seedlings 80 days after potting are tested and 6 pots each of them are grouped.
(§4) Pathogenic fungi Pellicularia sasakii is cultivated on a plate of potato infusion-sugar-agar at 30°C for 48 hours, and its agar disc 10mm in diameter is cut out from a peripheral colony. The disc is inserted into the inside space of the leaf sheath near the soil surface, a disc per stem. The pots are kept in a PVC shelter at the temperature of 32°-25° C and the relative humidity of 100-70%. Inoculation is carried out immediately after the applied drug has been air-dried in the prophylactic test, and 3 days before application in the remedial test.
(§5) 10 days after application of the drug, the length of each stem from ground level to the upper edge of the lesion is directly measured.

Pellicularia sasakii [6] = test: Rice sheath blight control test, remedial; format: in vivo; conditions: inoculation 3 days before application, untreated 34.4cm
Method: as §2, §3, §4, §5

Rhyzoctonia solani = test: Cucumber damping-off control test; format: in vivo; conditions: 14 days after sowing
Method: Cucumber damping-off control test
Rhyzoctonia solani is cultured on barley medium at 28° C for 5 days. A field soil sample is packed into clay pots 9 cm in diameter, which are then sterilized with steam. The chaff inoculum is evenly worked into the cover soil of each pot to the depth of about 3 cm, at the rate of 2g./pot. The pots are kept in an incubation chamber at 28° C for 4 days and, then, transferred to a greenhouse.
As per Experiment 1, the drug is sprayed onto the soil surface at the rate of 30 ml./6 pots/group.
Healthy seeds of cucumber (variety: Yonyo) are sown by burial in the pots immediately after treatment, at the rate of 10 seeds/pot. The pots are then placed in a greenhouse at 32°-28° C.
14 days after sowing, the results are evaluated against the following coefficients of lesion and the degrees of damage are calculated.
Coefficients of lesion (I)
0.5 : Root hairs alone are slightly affected.
1 : Aerial portions near soil surface and roots affected.
2 : Early stage of damping-off.
3 : Affected at germination; growth inhibited.
Degree of damage (%) =(Σ(nI))/3 × N × 100 wherein n means the number of samples corresponding to each coefficient of lesion and N means the total number of plants.

Cladosporium fulvum = test: Tomato leaf mold control test; format: in vivo; conditions: 50 ppm; 14 days after inoculation; inoculated 3 days before application
Method: Tomato leaf mold control test
Tomato plants (variety: ponterosa) are planted in 12 cm in diameter pots, one plant per pot. The seedlings 50 days after potting are used, 6 pots/group.
Applied at the rate of 100 ml./6 pots/group as per Experiment 1.
Pathogenic fungi Cladosporium fulvum is cultured on a potato infusion-sucrose plate at 20° C for 14 days, and a suspension of conidia (5×10^5 /ml.) is prepared from the culture.
The plants are spray-inoculated with the suspension 3 days before application of the drug, at the rate of 5 ml. per pot. The pots are kept in an inoculation chamber at 25° C for 24 hours, and, then they are transferred to a greenhouse.
14 days after inoculation, the specific ratio of the average area of lesion in the leaves is measured.

plant diseases = test: Control of plant diseases (general statement); format: in vivo; conditions: for controlling effect against plant diseases, for example, the sheath blight of the rice plant: application in vivo; for effectiveness against sheath blight and stem rot of rice plant, damping off and sclerotial blight of vegetables, flowering plants and lumber seedlings: in vivo
[7] = test system: men and beasts, as well as to fish; test: Harmlessness to men, beasts and fish (general statement); conditions: in vivo
useful plants = test: Effect on useful plants (general statement); format: in vivo; conditions: even when applied in a high concentration

Row | SMILES | highest dilution factor that causes an abnormal branching at the hyphal tips of Pellicularia sasakii (Pellicularia sasakii [1]) | dilution unit (maximum dilution which produces abnormal branching) (Pellicularia sasakii [1]) [dilution unit/ml.] | antimicrobial potency / growth inhibition of bacteria and fungi in vitro (bacteria and fungi) | pKa [2] | solubility in methanol (Solubilities) | LD50 [3] [mg/kg] | LC50 at 48 h [4] [µg/mL] | Preventive effect (percent of the average length of lesion/stem per control untreated) (Pellicularia sasakii [5]; 3 ppm) [%] | Preventive effect (percent of the average length of lesion/stem per control untreated) (Pellicularia sasakii [5]; 10 ppm) [%] | Preventive effect (percent of the average length of lesion/stem per control untreated) (Pellicularia sasakii [5]; 30 ppm) [%] | Preventive effect (percent of the average length of lesion/stem per control untreated) (Pellicularia sasakii [5]; 100 ppm) [%] | Preventive effect (percent of the average length of lesion/stem per control untreated) (Pellicularia sasakii [5]; 300 ppm) [%] | Remedial effect (percent of the average length of lesion/stem per control untreated) (Pellicularia sasakii [6]; 10 ppm) [%] | Remedial effect (percent of the average length of lesion/stem per control untreated) (Pellicularia sasakii [6]; 30 ppm) [%] | Remedial effect (percent of the average length of lesion/stem per control untreated) (Pellicularia sasakii [6]; 100 ppm) [%] | Remedial effect (percent of the average length of lesion/stem per control untreated) (Pellicularia sasakii [6]; 300 ppm) [%] | Degree of damage (Rhyzoctonia solani; 5 ppm) [%] | Degree of damage (Rhyzoctonia solani; 20 ppm) [%] | Degree of damage (Rhyzoctonia solani; 80 ppm) [%] | Specific area of lesion (Cladosporium fulvum) [%] | also measured
1 | OCC1=CC(NC2CC(CO)C(O)C(O)C2O)C(O)C(O)C1O (centres unmarked) [Validoxylamine A] | 100 | 100 | no antimicrobial potency | 6.2 ± 0.2 | soluble | > 2000 | > 1000 | 28 | 4 | 1 | 0 | 0 | 28 | 14 | 10 | 7 | 84 | 6 | 0 | 6 | Remedial effect (percent of the average length of lesion/stem per control untreated) (Pellicularia sasakii [6]; 3 ppm): 83%; controlling effect against plant diseases, for example, the sheath blight of the rice plant (plant diseases): excellent controlling effect; effectiveness against sheath blight and stem rot of rice plant, damping off and sclerotial blight of vegetables, flowering plants and lumber seedlings (plant diseases): very effective; harmfulness to men and beasts, as well as to fish [7]: substantially harmless; effect on germination, growth, yield and other features of useful plants (useful plants): do not substantially affect
2 | OCC1=C[C@H](NC2C(O)C(O)C(O)C(CO)C2O)[C@H](O)[C@@H](O)[C@@H]1O (some centres unmarked) [Validoxylamine B] | 10 | 10 | no antimicrobial potency | 5 ± 0.2 | more sparingly soluble | > 2000 | > 1000 | 49 | 47 | 32 | 16 | 8 | 93 | 75 | 51 | 10 | 100 | 100 | 75 | 36 | solubility in pyridine (Solubilities; pyridine): more sparingly soluble; controlling effect against plant diseases, for example, the sheath blight of the rice plant (plant diseases): excellent controlling effect; effectiveness against sheath blight and stem rot of rice plant, damping off and sclerotial blight of vegetables, flowering plants and lumber seedlings (plant diseases): very effective; harmfulness to men and beasts, as well as to fish [7]: substantially harmless; effect on germination, growth, yield and other features of useful plants (useful plants): do not substantially affect
